Laboratory results taken from paper PMC4648050, “Discovery of Inhibitors of Trypanosoma brucei by Phenotypic Screening of a Focused Protein Kinase Library” (Chemmedchem, 2015).
≈ marks a conversion by molar mass, not a printed value. Entries after “also recorded” stand apart in the source; their conditions may differ. Where two headings read alike, the source gives them in different places.

How the values were obtained:
[1] = Plasma protein binding (equilibrium dialysis); type: in vitro ADME; conditions: female, CD1; mouse plasma, equilibrium dialysis; read-out: PPB
Method: Plasma protein binding experiments: In brief, a 96-well equilibrium dialysis apparatus was used to determine the free fraction in plasma for each compound (HT Dialysis LLC, Gales Ferry, CT, USA). Membranes (12-14 kDa cutoff) were conditioned in deionised H2O for 60 min, followed by conditioning in 80:20 deionised H2O/EtOH for 20 min, and then rinsed in isotonic buffer before use. Female CD1 mouse plasma was removed from the freezer and allowed to thaw on the day of experiment. Thawed plasma was then centrifuged (Allegra […], Beckman Coulter, USA), spiked with test compound (10 μg g^-1), and 150 μL aliquots (n=6 replicate determinations) loaded into the 96-well equilibrium dialysis plate. Dialysis against isotonic buffer (150 μL) was carried out for 5 h in a temperature-controlled incubator at ∼37 °C (Barworld Scientific Ltd., UK) using an orbital microplate shaker at 125 rpm (Barworld Scientific). At the end of the incubation period, aliquots of plasma or buffer were transferred to micronic tubes (Micronic B.V., the Netherlands), and the composition in each tube was balanced with control fluid such that the volume of buffer to plasma is the same. Sample extraction was performed by the addition of 400 μL MeCN containing an appropriate internal standard. Samples were allowed to mix for 1 min and then centrifuged at 3000 rpm in 96-well blocks for 15 min (Allegra […], Beckman Coulter, USA). All samples were analysed by UPLC-MS/MS on a Quattro Premier XE Mass Spectrometer (Waters Corp.). The unbound fraction was determined as the ratio of the peak area in buffer to that in plasma.

T. b. brucei = experiment: Trypanosome proliferation assay; type: cell-based, Trypanosoma brucei brucei; conditions: for EC50: Trypanosoma brucei, read-out: EC50 T. b. brucei; for fold loss of activity (T. b. brucei EC50): relative to the comparator compound
Method: (§1) Trypanosome and MRC5 proliferation assay: Measurement of inhibition of the proliferation of MRC5 cells (human lung fibroblasts) and T. brucei bloodstream-stage cells was performed using a modification of a cell viability assay previously described.[35, 36] Compounds ([…] to 0.5 nM) were incubated with 2×10^3 cells per well in 0.2 mL of the appropriate culture medium (MEM with 10 % foetal bovine serum for MRC5 cells) in clear 96-well plates. Plates were incubated at 37 °C in the presence of 5 % CO2 for 69 h. Resazurin was then added to a final concentration of 50 μM, and plates were incubated as above for a further 4 h before being read on a BioTek Flx800 fluorescence plate reader.

[2] = system: MRC5 cells (human lung fibroblasts); experiment: MRC5 proliferation assay; type: cell-based; conditions: geometric mean of two or more determinations
Method: as §1

[3] = Kinetic aqueous solubility (laser nephelometry); type: physicochemical; conditions: Milli-Q water with 2.5% DMSO, kinetic from dmso stock, range 250–12 μM, read-out: Aq. Sol. (aqueous kinetic solubility)
Method: Solubility experiments: The kinetic aqueous solubility of the test compounds was measured using laser nephelometry. Compounds were subject to serial dilution from 10 mM to 0.5 mM in DMSO. An aliquot was then mixed with Milli-Q H2O to obtain an aqueous dilution plate with a final concentration range of 250–12 μM, with a final DMSO concentration of 2.5 %. Triplicate aliquots were transferred to a flat-bottomed polystyrene plate which was immediately read on the NEPHELOstar (BMG Lab Technologies). The amount of laser scatter caused by insoluble particulates (relative nephelometry units, RNU) was plotted against compound concentration using a segmental regression fit, with the point of inflection being quoted as the compounds′ aqueous solubility (in μM).

[4] = system: T. brucei bloodstream-stage cells; experiment: Static–cidal (SC) assay; type: cell-based, Trypanosoma brucei brucei; conditions: for EC50 / MCC: Trypanosoma brucei; for EC50: 48 h; for MCC: read-out: MCC (minimal cidal concentration); for Mode: static/cidal classification from growth curves; for mode of antiparasitic effect (in words): text and figure legend, at concentrations tested; for plateau of dose–response curve (inhibition): static–cidal dose–response curve
Method: Determination of cidality against T. brucei bloodstream-stage cells was performed using a static–cidal (SC) assay as previously reported.[26] Briefly, bloodstream-form trypanosomes were seeded into 384-well plates at 4×10^5 mL^−1 (50 μL per well), followed by immediate addition of resazurin (50 μM final) to one of the plates, and all plates were incubated at 37 °C, 5 % CO2. After 4 h the t0 plate was read using a PerkinElmer Victor 3 plate reader (λex=528 nm, λem=590 nm). The second plate was processed in the same manner 20 h later, and at 44 h the last plate was processed. The minimum cidal concentration (MCC) is defined as the lowest concentration of drug that results in a decrease of resorufin signal over time. For dose–response curves from this assay either a monophasic or a biphasic equation was used, depending on which one provided the best fit. For monophasic fits, the following four-parametric equation [Eq. (1)] was used:
in which A=percent inhibition at bottom, B=percent inhibition at top, C=EC50, D=slope, x=inhibitor concentration, and y=percent inhibition. Equation (2) was used for biphasic fits:
for which A=percent inhibition at mid-plateau, B=slope, C=log[SC EC50(1)], D=log[SC EC50(2)]. Thus SC EC50(1) is the EC50 for the first phase of the curve, and SC EC50(2) is that for the second phase. Inhibition at the bottom of the curve is fixed at 0 % and at the top, 100 %.

[5] = geometric mean of two or more determinations, standard cell viability (resazurin) assay
[6] = static cidal EC50, first site/phase, read-out: SC EC50(1)
[7] = static cidal EC50, second site/phase, read-out: SC EC50(2)
[8] = static–cidal assay in triplicate

Structure (SMILES)	EC50 (T. b. brucei; [5]) [nM]	EC50 [2] [nM]	fold loss of activity (T. b. brucei EC50) (T. b. brucei) [fold]	further results
COc1ccc(-c2cnc3[nH]c(=O)n(C4CCCCC4)c3n2)cc1 [Compound 20]	330	24000		fraction unbound at 5 h, 10 μg g^−1 [1]: 0.007
O=c1[nH]c2ncc(-c3ccc(F)cc3)nc2n1Cc1ccccc1 [Compound 9, 1-Benzyl-6-(4-fluorophenyl)-1H-imidazo[4,5-b]pyrazin-2(3H)-one]	500	> 50000		
CC(C)(c1ccccc1)n1c(=O)[nH]c2ncc(-c3ccccc3CO)cc21 [Compound 54]	15000	> 50000		
COCCCn1c(=O)[nH]c2ncc(-c3ccc(OC(F)(F)F)cc3)nc21 [Compound 2]	500	15000		
O=c1[nH]c2ncc(-c3ccccc3)nc2n1-c1ccccc1 [Compound 37]	> 50000	> 50000		
O=c1[nH]c2ncc(-c3ccc(CO)cc3)nc2n1C1CCCCC1 [Compound 21]	400	> 50000	10	fraction unbound at 5 h, 10 μg g^−1 [1]: 0.047
C[C@H](c1ccccc1)n1c(=O)[nH]c2nccnc21 [Compound 16]	36000	> 50000	> 300	
COCc1ccccc1-c1cnc2[nH]nc(C3CCCCC3)c2c1 [Compound 62]	2600	> 50000		
CN(C)CCn1c(=O)[nH]c2ncc(-c3ccccc3)nc21 [Compound 41]	13000	> 50000		
CN1CCC(n2c(=O)[nH]c3ncc(-c4ccccc4)nc32)CC1 [Compound 42]	2000	> 50000		
C[C@H](c1ccccc1)n1c(=O)[nH]c2ncc(-c3cccc(F)c3)nc21 [Compound 17]	300	44000		
C[C@H](c1ccccc1)n1c(=O)[nH]c2ncc(-c3ccc(O)cc3)nc21 [Compound 3]	900			
CNC(=O)c1ccc(-c2cnc3[nH]c(=O)n(C4CCCCC4)c3n2)cc1 [Compound 22]	1700	> 50000	30	
O=c1[nH]c2ncc(-c3ccccc3CO)cc2n1C1CCCCC1 [Compound 53]	670	> 50000	~13	
OCc1ccccc1-c1cnc2[nH]nc(C3CCCCC3)c2c1 [Compound 61]	1300	> 50000		
CN1CCN(c2cnc3[nH]c(=O)n(C4CCCCC4)c3n2)CC1 [Compound 33]	2000	> 50000	50	
C[C@H](c1ccccc1)n1c(=O)n(C)c2ncc(-c3ccc(F)cc3)nc21 [Compound 48]	8000		100	
CC(C)n1c(=O)[nH]c2ncc(-c3ccccc3)nc21 [Compound 36]	300	> 50000	10	

Structure (SMILES)	EC50 (T. b. brucei; [5]) [nM]	EC50 [2] [nM]	fold loss of activity (T. b. brucei EC50) (T. b. brucei) [fold]	further results
O=c1[nH]c2ncc(N3CCOCC3)nc2n1C1CCCCC1 [Compound 32]	50	> 50000		solubility kinetic [3]: 220 µM (≈ 66.7 µg/mL)
O=c1[nH]c2ncc(-c3ccncc3)nc2n1C1CCCCC1 [Compound 29]	70	> 50000		
COCC(C)n1c(=O)[nH]c2ncc(-c3ccccc3)nc21 (centres unmarked) [Compound 39, 1-(1-Methoxypropan-2-yl)-6-phenyl-1H-imidazo[4,5-b]pyrazin-2(3H)-one]	200	> 50000		EC50 [4, 6]: 410 nM; EC50 [4, 7]: 32000 nM; MCC [4, 8]: > 50000 nM; Mode [4]: S; mode of antiparasitic effect (in words) [4]: growth-slowing or static behaviour
O=c1[nH]c2ncc(N3CCOCC3)cc2n1C1CCCCC1 [Compound 57]	330	> 50000	~7	
CCC(CO)n1c(=O)[nH]c2ncc(-c3ccccc3)nc21 (centres unmarked) [Compound 40]	500	> 50000	~10	
O=c1[nH]c2ncc(-c3cccc(CO)c3)nc2n1C1CCCCC1 [Compound 24]	30	> 50000		solubility kinetic [3]: > 250 µM; EC50 [4, 6]: 70 nM; EC50 [4, 7]: 30000 nM; MCC [4, 8]: > 50000 nM; Mode [4]: S; mode of antiparasitic effect (in words) [4]: growth-slowing or static behaviour; also recorded: static at concentration tested
CN(C)Cc1ccc(-c2cnc3[nH]c(=O)n(C4CCCCC4)c3n2)cc1 [Compound 23]	5000	> 50000	50	
N=C(N)c1ccc(OCCCCCOc2ccc(C(=N)N)cc2)cc1 [pentamidine, reference compound]	4			EC50 [4, 6]: 19 nM; MCC [4, 8]: 100 nM; plateau of dose–response curve (inhibition) [4]: 100 % inhibition; mode of antiparasitic effect (in words) [4]: cidal
C[C@H](c1ccccc1)n1c(=O)[nH]c2ncc(-c3ccc(OC(F)(F)F)cc3)nc21 [Compound 15]	1000	39000	10	
Cn1c(=O)[nH]c2ncc(-c3ccc(F)cc3)nc21 [Compound 11]	40000	> 50000	100	
CC(=O)Nc1cccc(-c2cnc3[nH]c(=O)n(C4CCCCC4)c3n2)c1 [Compound 25]	900	> 50000		
C[C@@H](c1ccccc1)n1c(=O)[nH]c2ncc(-c3ccc(F)cc3)nc21 [Compound 8]	90	> 50000		
CC(C)(c1ccccc1)n1c(=O)[nH]c2ncc(-c3cccnc3)cc21 [Compound 52]	790	23000		
Nc1nc(N)nc(Nc2ccc([As]3SCC(CO)S3)cc2)n1 (centres unmarked) [melarsoprol, reference compound]				EC50 (T. b. brucei): 9 nM; EC50 ([4]; read-out: SC EC50(1)): 31 nM; MCC [4]: 100 nM; plateau of dose–response curve (inhibition) [4]: 100 % inhibition
COc1ccccc1-c1cnc2[nH]c(=O)n(C3CCCCC3)c2n1 [Compound 27]	900	> 50000		
O=c1[nH]c2ncc(-c3ccccc3F)nc2n1C1CCCCC1 [Compound 26]	60	> 50000		fraction unbound at 5 h, 10 μg g^−1 [1]: 0.007; solubility kinetic [3]: 20 µM (≈ 6.25 µg/mL); EC50 [4, 6]: 90 nM; MCC [4, 8]: > 50000 nM; mode of antiparasitic effect (in words) [4]: growth-slowing or static behaviour
C[C@H](c1ccccc1)n1c(=O)[nH]c2ccc(-c3ccc(F)cc3)cc21 [Compound 47]	10000		100	
